{"source": "patent US6133233A", "about": "“Peptide modulation of reperfusion injury” (Kansas State University Research Foundation, priority 1998, dated 2000)", "key": {"[1]": {"test_system": "leukocyte adherence and extravasation", "conditions": "cited from earlier work"}, "[2]": {"test_system": "neutrophil oxidase activity", "experiment": "Superoxide anion production in whole neutrophils (SOD-inhibitable ferricytochrome c reduction, PMA)", "type": "cell-based", "conditions": "concentrations 5-10 μM", "method": "(§1) In these experiments, superoxide anion production by neutrophils was determined by the superoxide dismutase-inhibitable reduction of ferricytochrome c.\n(§2) Four samples were prepared for each animal: (1) neutrophils (1×10^6 cells) in Hanks' balanced salt solution (HBSS; without phenol red) mixed with 100 μl (80 μM) of ferricytochrome c, 10 μl (0.1 μg) phorbol myristate acetate (PMA), and 100 μl (300 U) of superoxide dismutase (SOD); (2) cells treated with ferricytochrome c only; (3) cells treated with ferricytochrome c and PMA; and (4) cells treated with ferricytochrome c and SOD. The mixtures were incubated at 39° C. for 20 min. and then centrifuged at 4° C. (350×g) for 5 min. Cell-free supernatant (200 μl) was transferred to flat-bottom 96-well plates, and OD was read at 550 nm using HBSS as the blank. Production of superoxide anion was calculated using the following formula: OD of [(3+4)-(1+2)]×190.5=nm superoxide/1 ×10^6 cells/20 min."}, "intact human neutrophils": {"test_system": "intact human neutrophils", "experiment": "Superoxide anion generation in intact human neutrophils", "type": "cell-based", "method": "as §1, §2"}, "[3]": {"test_system": "leukocyte emigration through venular endothelium", "experiment": "Leukocyte emigration through venular endothelium after ischemia-reperfusion", "type": "in vivo, rat", "conditions": "rats, pretreatment with about 5 μM", "method": "(§3) In this example, the efficiency of PR-39 (SEQ ID NO: 1) was tested in an in vivo model of reperfusion. Measurements of reactive oxygen release, neutrophil adherence to postcapillary venules and neutrophil emigration through venular endothelium, and vascular leakage were made in the presence and absence of PR-39 (SEQ ID No. 1).\n(§4) In this example, male Sprague-Dawley rats weighing 220-250 g each were used. The rats were anesthetized by intraperitoneal injection of pentobarbital (30-40 mg/kg rat body weight) and the jugular vein of each rat was cannulated for reagent injection. […] The images were captured with a charge-coupled device camera (Model C2400-60, Hamamatsu Photonics) which was mounted on the microscope, projected onto a television monitor (Model PVM-2030, Sony) and recorded using a videocassette recorder (Model HS-U65, Mitsubishi). […]\n(§5) Single, unbranched venules with diameters between 25-35 μm and lengths longer than 150 μm (both measured with a video caliper, Microcirculation Research Institute, Texas A&M University) were selected for the studies. […]\n(§6) The number of adherent and transmigrating leukocytes was determined off-line using videotaped images. […] Adherent leukocytes were expressed as the number per 100 μm length of venule. The number of emigrating leukocytes were also determined off-line and were expressed as the number per microscopic field."}, "reactive oxygen species": {"test_system": "reactive oxygen species", "experiment": "Reactive oxygen (oxidant) production after mesenteric ischemia-reperfusion, dihydrorhodamine 123 intravital fluorescence", "type": "in vivo, rat", "conditions": "rats", "method": "as §3\nas §4, with “injection. The carotid artery of each rat was also cannulated for measurements of mean arterial blood pressure using a pressure transducer (Model P23a, Statham) and physiological recorder (Grass Instruments).” for “injection.”\nas §5\nIn more detail, generation of reactive oxygen levels were measured by the dihydrorhodamine 123 dye. […]"}, "neutrophil chemotaxis": {"test_system": "neutrophil chemotaxis", "experiment": "Neutrophil microchemotaxis assay", "type": "cell-based", "conditions": "rat neutrophils; PR-39 10 μM", "from_the_text": "A microchemotaxis assay was used to examine the effect of PR-39 (SEQ ID No. 1) and another basic, PXXP-containing antimicrobial peptide, Bac5 (SEQ ID No. 7), on neutrophil chemotaxis alone and in combination. Whole blood was obtained from 250-350 g Sprague-Dawley rats by terminal cardiac puncture into acid citrate dextrose solution. Neutrophils were isolated by dextran sedimentation, followed by density-gradient centrifugation and hypotonic lysis to remove contaminating erythrocytes. Micropore filters (5 μM-pore polycarbonate membrane) were used to separate the lower and upper chambers of the microchemotaxis chamber. Attractants to be tested were diluted in RPMI medium and added (35 μl) to the lower wells of the chamber; 50 μl of the cell suspension ([…]) was added to the upper chamber. Chambers were placed in a humidified atmosphere of 5% CO2 in air at 37° C. for 40 min. Cells on the underside of the filters were fixed, stained, and counted using high-power brightfield microscopy. For each sample, four test wells containing chemoattractant were used. The total number of neutrophils in five fields was counted for each well. All results are expressed as a chemotaxis index defined as […]."}, "[4]": {"test_system": "bovine pulmonary artery endothelial (BPAE) cells", "experiment": "Superoxide production in high K+ treated BPAE cells (dichlorodihydrofluorescein)", "type": "cell-based", "conditions": "10 μM, 30 min", "method": "PR-39 (SEQ ID No. 1) was also tested in a cell other than neutrophils, namely bovine pulmonary artery endothelial (BPAE) cells. In these cells, membrane depolarization induced by high K^+ treatment results in the production of superoxide anion by an endothelial NADPH oxidase enzyme that may be similar to the oxidase found in neutrophils. In these experiments, cultured BPAE cells were loaded with an oxidation-sensitive dye, dichlorodihydrofluorescein, then treated with high K^+, plus or minus PR-39 (SEQ ID No. 1) or PR-26 (SEQ ID No. 2), for 30 min. Cells were then scraped, pelleted, washed, and sonicated. Fluorescence of the supernatant was then measured to assess superoxide production."}, "[5]": {"test_system": "leukocyte adherence to mesenteric venular endothelium", "experiment": "Leukocyte adherence to mesenteric venular endothelium after ischemia-reperfusion", "type": "in vivo, rat", "conditions": "rats, pretreatment with about 5 μM", "method": "as §3, §4, §5, §6"}, "venular protein leakage": {"test_system": "venular protein leakage", "experiment": "Albumin leakage through mesenteric venules (vascular integrity) after ischemia-reperfusion", "type": "in vivo, rat", "conditions": "rats, PR-39 pretreatment", "method": "An assessment of vascular integrity was made by quantification of albumin leakage through mesenteric venules. Three groups of Sprague-Dawley rats (6 rats/group and respectively labeled control, I/R and I/R+PR-39) were obtained. […] The control group was subjected to a similar surgical preparation, but without occlusion of the mesenteric artery or PR-39 (SEQ ID No. 1) administration. Fifty mg/kg fluorescein isothiocyanate-labeled bovine albumin was administered IV to each of the rats of each group, 15 min. prior to release of occlusion of the rats of the I/R and I/R+PR-39 (SEQ ID No. 1) groups. Fluorescence intensities within three segments of the venule under study (Iv) and in three adjacent areas of interstitium (Ii) were detected using a SIT camera (Model C-2400-08; Hamamatsu Photonics). Measurements were made at the basal, 20-30 min., and 50-60 min. time points using a computer-assisted digital imaging processor (NIH Image 1.35 on a Macintosh computer). An index of albumin leakage was expressed as the ratio of Ii to Iv at each time."}, "[6]": {"conditions": "2 μM adenosine, cat mesenteric model"}}, "data": [{"compound": "Nc1ncnc2c1ncn2[C@@H]1O[C@H](CO)[C@@H](O)[C@H]1O", "note": "[adenosine]", "values": [{"measurement": "Reduction of reperfusion injury-induced adhesion of neutrophils", "setting": "[1]; [6]", "result": 65, "unit": "%"}, {"measurement": "Reduction of reperfusion injury-induced extravasation of neutrophils", "setting": "[1]; [6]", "result": 32, "unit": "%"}, {"measurement": "Reduction of oxidant release", "setting": "[1]; adenosine treatment, literature", "result": 20, "unit": "%"}]}, {"compound": "Bac5: basic, PXXP-containing antimicrobial peptide (RFRPPIRRPPIRPPFYPPFRPPIRPPIFPPIRPPFRPPLGPFP)", "values": [{"measurement": "Inhibition of neutrophil oxidase activity (superoxide anion generation in intact neutrophils)", "setting": "[2]", "result": "inhibition of superoxide anion generation"}]}, {"compound": "Bac7: cationic, proline-rich, PXXP-containing peptide (RRIRPRPPRLPRPRPRPLYC)", "values": [{"measurement": "Inhibition of neutrophil oxidase activity (superoxide anion generation in intact neutrophils)", "setting": "[2]", "result": "inhibition of superoxide anion generation"}]}, {"compound": "C7: non-naturally occurring, cationic, PXXP-containing peptide (RRGPRHPQTRLPRPLPDP)", "values": [{"measurement": "Inhibition of superoxide anion generation in intact human neutrophils", "setting": "intact human neutrophils", "result": "inhibition of superoxide anion generation"}]}, {"compound": "PR-39: proline/arginine-rich peptide of 39 residues (29/39 proline and arginine), most preferred peptide (RRRPRPPYLPRPRPPPFFPPRLPPRIPPGFPPRFPPRFP)", "values": [{"measurement": "Basal neutrophil emigration", "setting": "[3]; basal", "result": "appeared to be diminished"}, {"measurement": "Transvascular neutrophil emigration", "setting": "[3]; both post-release time points", "result": "no migrating neutrophils observed"}, {"measurement": "Oxidant release (reactive oxygen production)", "setting": "reactive oxygen species; PR-39 pretreatment, comparison with adenosine", "result": "complete prevention of oxidant release"}, {"measurement": "Oxidant production", "setting": "reactive oxygen species; about 5 μM PR-39 pre-ischemia, 20 min ischemia, 30 minutes after resumption of mesenteric venular circulation", "result": "significantly inhibited"}, {"measurement": "Neutrophil chemotaxis, examined alone", "setting": "neutrophil chemotaxis", "result": "chemotactic for neutrophils"}, {"measurement": "Inhibition of neutrophil oxidase activity (superoxide anion generation in intact neutrophils)", "setting": "[2]", "result": "inhibition of superoxide anion generation"}, {"measurement": "Oxidase activity (superoxide production) in pulmonary endothelium", "setting": "[4]", "result": "decrease oxidase activity"}, {"measurement": "Neutrophil adhesion to venular endothelium", "setting": "[5]", "result": "no apparent endothelium neutrophil interaction in excess of basal levels"}, {"measurement": "Vascular integrity (albumin leakage index Ii/Iv)", "setting": "venular protein leakage", "result": "prevented loss of vascular integrity"}]}, {"compound": "platelet activating factor [PAF, reference compound]", "values": [{"measurement": "Neutrophil chemotaxis, examined alone", "setting": "neutrophil chemotaxis", "result": "chemotactic for neutrophils"}]}]}
